This is an account of results in ChEMBL document CHEMBL5137059, “An Intelligent Strategy with All-Atom Molecular Dynamics Simulations for the Design of Lipopeptides against Multidrug-Resistant Pseudomonas aeruginosa” (2022).

≈ marks a conversion by molar mass, not a printed value. Positions of bridges follow the written chain, without caps; N, C: chain ends. Non-standard residues stand in square brackets, D forms with d. Residues, ends and D or L forms follow the SMILES beside them. *: point of attachment. Benzoyl(4-Ph) = O=C(c1ccc(-c2ccccc2)cc1)*; Bip = N[C@@H](Cc1ccc(-c2ccccc2)cc1)C(=O)O; dBip = N[C@H](Cc1ccc(-c2ccccc2)cc1)C(=O)O; dGly(nOct) = CCCCCCCC[C@@H](N)C(=O)O; Gly(octyl) = CCCCCCCC[C@H](N)C(=O)O; Octanoyl = CCCCCCCC(=O)*; Dab = NCC[C@H](N)C(=O)O; Bn = c1ccc(C*)cc1

Common to all, as to assay type: functional
In assay [1] the test system is Pseudomonas aeruginosa. The assay is described as follows: Antimicrobial activity against polymyxin resistant Pseudomonas aeruginosa FADDI-PA070 assessed as microbial growth inhibition measured at 18 to 20 hrs by broth microdilution assay. To be noted: time 18-20 hrs.
Assay [2] has as its system Pseudomonas aeruginosa. Kind of assay: Antimicrobial activity against polymyxin resistant Pseudomonas aeruginosa FADDI-PA060 assessed as microbial growth inhibition measured at 18 to 20 hrs by broth microdilution assay. As to conditions: time 18-20 hrs.
The subject of assay [3] is Pseudomonas aeruginosa. The assay is described as follows: Antimicrobial activity against polymyxin resistant Pseudomonas aeruginosa FADDI-PA071 assessed as microbial growth inhibition measured after 20 hrs by CLSI-protocol based broth microdilution assay.
For assay [4], the system named is Pseudomonas aeruginosa. The assay is described as follows: Antimicrobial activity against Pseudomonas aeruginosa PAO1 assessed as microbial growth inhibition measured after 20 hrs by CLSI-protocol based broth microdilution assay.
The subject of assay [5] is Pseudomonas aeruginosa. Kind of assay: Disruption of membrane integrity in polymyxin resistant Pseudomonas aeruginosa FADDI-071 assessed as fold increase by measuring cellular fluorescence intensity at 8 mg/L incubated for 4 hrs by DiBAC and PI staining based flow cytometry analysis.
Assay [6] concerns Pseudomonas aeruginosa. Kind of assay: Disruption of membrane integrity in polymyxin resistant Pseudomonas aeruginosa FADDI-PA065 assessed as fold increase by measuring cellular fluorescence intensity at 8 mg/L incubated for 4 hrs by DiBAC and PI staining based flow cytometry analysis.
Assay [7] has as its system Pseudomonas aeruginosa. Kind of assay: Antimicrobial activity against Pseudomonas aeruginosa PW7028 assessed as microbial growth inhibition measured after 20 hrs by CLSI-protocol based broth microdilution assay.
For assay [8], the system named is Pseudomonas aeruginosa. Kind of assay: Antimicrobial activity against polymyxin resistant Pseudomonas aeruginosa FADDI-PA065 assessed as microbial growth inhibition measured after 20 hrs by CLSI-protocol based broth microdilution assay.
For assay [9], the system named is Pseudomonas aeruginosa. Kind of assay: Antimicrobial activity against Pseudomonas aeruginosa PAO1R assessed as microbial growth inhibition measured after 20 hrs by CLSI-protocol based broth microdilution assay.

With `CCCCCCCC(=O)N[C@@H](CCN)C(=O)N[C@H](C(=O)N[C@@H](CCN)C(=O)N[C@H]1CCNC(=O)[C@H]([C@@H](C)O)NC(=O)[C@H](CCN)NC(=O)[C@H](CCN)NC(=O)[C@H](Cc2ccccc2)NC(=O)[C@@H](Cc2ccccc2)NC(=O)[C@H](CCN)NC1=O)[C@@H](C)O`, the minimal inhibitory concentration (MIC) in the assay with Pseudomonas aeruginosa [1] and in the assay with Pseudomonas aeruginosa [2] was more than 32 µg/mL throughout.

Turning to `CCCCCCCC[C@H]1NC(=O)[C@H](CCN)NC(=O)[C@@H](NC(=O)[C@H](CCN)NC(=O)[C@@H](NC(=O)[C@H](CCN)NC(=O)c2ccccc2)[C@@H](C)O)CCNC(=O)[C@H]([C@@H](C)O)NC(=O)[C@H](CCN)NC(=O)[C@H](CCN)NC(=O)[C@H](CC(C)C)NC1=O`, the minimum inhibitory concentration (MIC) in the assay on Pseudomonas aeruginosa [1] and with Pseudomonas aeruginosa [2] was 32 µg/mL (≈ 26.9 µM) in each case.

Turning to `CCCCCCCC(=O)N[C@@H](CCN)C(=O)N[C@H](C(=O)N[C@@H](CCN)C(=O)N[C@H]1CCNC(=O)[C@H]([C@@H](C)O)NC(=O)[C@H](CCN)NC(=O)[C@H](CCN)NC(=O)[C@H](CC(C)C)NC(=O)[C@@H](Cc2ccc(-c3ccccc3)cc2)NC(=O)[C@H](CCN)NC1=O)[C@@H](C)O` (Octanoyl-[Dab]T[Dab][Dab][Dab][dBip]L[Dab][Dab]T; lactam 4-C), the MIC came out at 4 µg/mL (≈ 3.16 µM) in the assay on Pseudomonas aeruginosa [1] and 8 µg/mL (≈ 6.32 µM) with Pseudomonas aeruginosa [2].

On to `CCCCCCCC(=O)N[C@@H](CCN)C(=O)N[C@H](C(=O)N[C@@H](CCN)C(=O)N[C@H]1CCNC(=O)[C@H]([C@@H](C)O)NC(=O)[C@H](CCN)NC(=O)[C@H](CCN)NC(=O)[C@H](CSCc2ccccc2)NC(=O)[C@@H](Cc2ccccc2)NC(=O)[C@H](CCN)NC1=O)[C@@H](C)O` (Octanoyl-[Dab]T[Dab][Dab][Dab][dF]C(Bn)[Dab][Dab]T; lactam 4-C), for which the MIC is more than 32 µg/mL in the assay with Pseudomonas aeruginosa [1] and 32 µg/mL (≈ 25.2 µM) in the assay with Pseudomonas aeruginosa [2].

For `CCCCCCCC(=O)N[C@@H](CCN)C(=O)N[C@H](C(=O)N[C@@H](CCN)C(=O)N[C@H]1CCNC(=O)[C@H]([C@@H](C)O)NC(=O)[C@H](CCN)NC(=O)[C@H](CCN)NC(=O)[C@H](Cc2ccc(-c3ccccc3)cc2)NC(=O)[C@@H](Cc2ccccc2)NC(=O)[C@H](CCN)NC1=O)[C@@H](C)O` (Octanoyl-[Dab]T[Dab][Dab][Dab][dF][Bip][Dab][Dab]T; lactam 4-C), the MIC in the assay with Pseudomonas aeruginosa [1] was 4 µg/mL (≈ 3.08 µM); with Pseudomonas aeruginosa [2], 8 µg/mL (≈ 6.16 µM).

Regarding `CCCCCCCC[C@@H]1NC(=O)[C@@H](Cc2ccccc2)NC(=O)[C@H](CCN)NC(=O)[C@@H](NC(=O)[C@H](CCN)NC(=O)[C@@H](NC(=O)[C@H](CCN)NC(=O)CCCCCCC)[C@@H](C)O)CCNC(=O)[C@H]([C@@H](C)O)NC(=O)[C@H](CCN)NC(=O)[C@H](CCN)NC1=O` (Octanoyl-[Dab]T[Dab][Dab][Dab][dF][Gly(octyl)][Dab][Dab]T; lactam 4-C), the MIC amounted to 4 µg/mL (≈ 3.21 µM) with Pseudomonas aeruginosa [3]; 4 µg/mL (≈ 3.21 µM) in the assay on Pseudomonas aeruginosa [4]; 4 µg/mL (≈ 3.21 µM) in the assay on Pseudomonas aeruginosa [1]; 2 µg/mL (≈ 1.61 µM) in the assay on Pseudomonas aeruginosa [7]; 2 µg/mL (≈ 1.61 µM) in the assay with Pseudomonas aeruginosa [2]; 1 µg/mL (≈ 0.803 µM) with Pseudomonas aeruginosa [8]. For the same compound, the MIC in the assay with Pseudomonas aeruginosa [9] was 8 µg/mL (≈ 6.42 µM). Also, the “fold change (FC)” value in the assay on Pseudomonas aeruginosa [5] and in the assay on Pseudomonas aeruginosa [6] was 19.6 each time.

As to `CCCCCCCC[C@H]1NC(=O)[C@H](CCN)NC(=O)[C@@H](NC(=O)[C@H](CCN)NC(=O)[C@@H](NC(=O)[C@H](CCN)NC(=O)CCCCCCC)[C@@H](C)O)CCNC(=O)[C@H]([C@@H](C)O)NC(=O)[C@H](CCN)NC(=O)[C@H](CCN)NC(=O)[C@H](CC(C)C)NC1=O` (Octanoyl-[Dab]T[Dab][Dab][Dab][dGly(nOct)]L[Dab][Dab]T; lactam 4-C), the minimal inhibitory concentration (MIC) with Pseudomonas aeruginosa [3] was 4 µg/mL (≈ 3.3 µM); with Pseudomonas aeruginosa [4], 4 µg/mL (≈ 3.3 µM); with Pseudomonas aeruginosa [1], 2 µg/mL (≈ 1.65 µM); with Pseudomonas aeruginosa [7], 4 µg/mL (≈ 3.3 µM); in the assay with Pseudomonas aeruginosa [2], 2 µg/mL (≈ 1.65 µM); in the assay with Pseudomonas aeruginosa [8], 2 µg/mL (≈ 1.65 µM). The MIC in the assay with Pseudomonas aeruginosa [9] was 8 µg/mL (≈ 6.6 µM). Also, the “fold change (FC)” value in the assay with Pseudomonas aeruginosa [5] and with Pseudomonas aeruginosa [6] was 18.8 throughout.

For the compound `C[C@@H](O)[C@@H]1NC(=O)[C@H](CCN)NC(=O)[C@H](CCN)NC(=O)[C@H](Cc2ccc(-c3ccccc3)cc2)NC(=O)[C@@H](Cc2ccccc2)NC(=O)[C@H](CCN)NC(=O)[C@@H](NC(=O)[C@H](CCN)NC(=O)[C@@H](NC(=O)[C@H](CCN)NC(=O)c2ccc(-c3ccccc3)cc2)[C@@H](C)O)CCNC1=O` ({Benzoyl(4-Ph)}-[Dab]T[Dab][Dab][Dab][dF][Bip][Dab][Dab]T; lactam 4-C), the MIC in the assay on Pseudomonas aeruginosa [1] came out at 16 µg/mL (≈ 11.8 µM); in the assay with Pseudomonas aeruginosa [2], 8 µg/mL (≈ 5.91 µM).

On to COLISTIN, for which the MIC in the assay on Pseudomonas aeruginosa [3] was more than 128 µg/mL; in the assay with Pseudomonas aeruginosa [4] it was 2 µg/mL; with Pseudomonas aeruginosa [1] it was more than 128 µg/mL; with Pseudomonas aeruginosa [7] it was 1 µg/mL; with Pseudomonas aeruginosa [2], more than 128 µg/mL; with Pseudomonas aeruginosa [8] it was more than 128 µg/mL. Besides, in the assay on Pseudomonas aeruginosa [9], the MIC was more than 32 µg/mL. The fold change (FC) in the assay on Pseudomonas aeruginosa [5] and in the assay with Pseudomonas aeruginosa [6] was 2.33 throughout.
